Source: PubChem BioAssay (NCI)
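Here, GI50 denotes the concentration required for 50% inhibition of growth. Definition used: TGI = concentration required for complete inhibition of growth.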

What was measured:
Test in all cases: growth of human tumour cells (NCI), 384-well format
A498 renal = tested on: A498 renal
T-47D breast = tested on: T-47D breast
HT29 colon = tested on: HT29 colon
RPMI-8226 leukemia = tested on: RPMI-8226 leukemia
MDA-MB-468 breast = tested on: MDA-MB-468 breast
SK-OV-3 ovarian = tested on: SK-OV-3 ovarian
SNB-19 CNS = tested on: SNB-19 CNS
SR leukemia = tested on: SR leukemia
IGROV1 ovarian = tested on: IGROV1 ovarian
TK-10 renal = tested on: TK-10 renal
MCF7 breast = tested on: MCF7 breast
HS 578T breast = tested on: HS 578T breast
SNB-75 CNS = tested on: SNB-75 CNS

## Cc1ccc2c(Nc3cccc(Cl)c3F)ncc(NC(=O)c3csc4c(N)ncnc34)c2c1
A498 renal
  GI50: 3.07 µM
  TGI: 43 µM
T-47D breast
  GI50: 19.5 µM
  TGI: > 100 µM
HT29 colon
  GI50: 127 nM
  TGI: > 100 µM
RPMI-8226 leukemia
  GI50: 1600 nM
  TGI: 18.5 µM
MDA-MB-468 breast
  GI50: 18.3 µM
  TGI: 52.4 µM
SK-OV-3 ovarian
  GI50: 27 µM
  TGI: > 100 µM
SNB-19 CNS
  GI50: 55 µM
  TGI: > 100 µM
SR leukemia
  GI50: 15.1 µM
  TGI: 82.8 µM
IGROV1 ovarian
  GI50: 1600 nM
  TGI: 97.9 µM
TK-10 renal
  GI50: 8.61 µM
  TGI: 75.8 µM
MCF7 breast
  GI50: 7.47 µM
  TGI: > 100 µM
HS 578T breast
  GI50: 931 nM
  TGI: 63.4 µM
SNB-75 CNS
  GI50: 33.6 µM
  TGI: > 100 µM
